Values belong to the compound of their own block, whether it stands above or below them.
How the values were obtained:
[1] = Minipig plasma concentrations / toxicokinetic evaluation after topical foam; details: topical application of foam formulations
[2] = Chemical stability of foam formulations by HPLC (assay % LC, total impurities); assay type: physicochemical; details: for chemical stability, in words: to 3 months, 25° C./60% RH and 40° C./75% RH
From the text: The protocol used for determining the purity was a liquid chromatography (LC) method. The LC method is provided below.
This method is for the determination of Ruxolitinib Phosphate in foam formulations that contain Ruxolitinib Phosphate as active pharmaceutical ingredient (API). The method is suitable for the determination of active content in stability screening samples. The method can also be used to estimate the level of major degradants of Ruxolitinib Phosphate.
Foam formulations contain about 0.5% Ruxolitinib base (API added as Ruxolitinib Phosphate)
Weigh accurately about 500 mg of sample into a tared 25 mL volumetric flask.
Equilibrate the chromatographic system with starting mobile phase composition until a stable baseline is obtained. The following gradient (Table 12) at a flow rate of 1.0-1.5 mL/min is used: […]
Using the instrument conditions, equilibrate the chromatographic system with mobile phase. Record the chromatograms of Ruxolitinib Phosphate peak for the standard and sample solutions. The retention time of principal peak in the HPLC chromatogram of the sample should correspond with the retention time of the principal peak produced by Ruxolitinib Phosphate Standard Solution. The retention time difference between sample and standard should not be more than 5%.

[3] = system: alopecia; details: 8 mg and 12 mg BID orally; cited from earlier work
[4] = Microscopic examination of the foam samples (drug recrystallisation); assay type: physicochemical
[5] = Solubility of ruxolitinib phosphate in ethanol-water solutions and hydroethanolic foamable carrier components; assay type: physicochemical
Description: Based on the good solubility of ruxolitinib phosphate in hydroethanolic mixtures, the solubility of ruxolitinib phosphate in a hydroethanolic base formulation was studied. Utilizing Method A (Materials and Methods), the formulations in Table 23 were prepared. […] PG was added as a penetration enhancer to facilitate better skin permeation of the API from application of the foam.

[6] = Solubility of ruxolitinib phosphate in organic media; assay type: physicochemical; details: for Reported Solubility % w/w, ruxolitinib phosphate: ambient temperature
Description: Under pre-formulation studies, the solubility of ruxolitinib phosphate was evaluated in organic media over the course of three days at ambient temperature.

[7] = 1,3-Dimethyl-2-Imadolidinone (DMI) (neat)
[8] = Isopropyl Myristate (IPM) (neat)

impurities ([2]; 3-months, 25° C. and 40° C., method detection limit): < 0.05 % area | chemical stability, in words [2]: chemically stable | drug recrystallisation / solubility in the foam [4]: remained soluble in the foam formulation
SMILES: [2H]C1([2H])C([C@@H](CC#N)n2cc(-c3ncnc4[nH]ccc34)cn2)C([2H])([2H])C([2H])([2H])C1([2H])[2H] [Deuruxolitinib, (3R)-3-(2,2,3,3,4,4,5,5-D8) cyclopentyl-3-[4-(7H-pyrrolo[2,3-d]pyrimidin-4-yl)-1H-pyrazol-1-yl]propanenitrile]
systemic exposure (plasma concentrations) [1]: did not indicate therapeutic relevant concentrations | clinical endpoint [3]: met the clinical endpoint

solubility (loading level) in ethanol:water ([5]; mixtures of 60:40 or 40:60 ethanol:water): ~4 % on a free base basis (w/w) | Calculated Solubility, % w/w in base form [6, 7]: 0.168 % w/w | Reported Solubility % w/w, ruxolitinib phosphate [6, 7]: 0.22 % w/w | Calculated Solubility, % w/w in base form ([6]; Castor Oil (neat)): 0.028 % w/w | Reported Solubility % w/w, ruxolitinib phosphate ([6]; Castor Oil (neat)): 0.037 % w/w | Calculated Solubility, % w/w in base form ([6]; DIPA (neat)): <0.01 % w/w | Reported Solubility % w/w, ruxolitinib phosphate ([6]; DIPA (neat)): <0.01 % w/w | Calculated Solubility, % w/w in base form ([6]; Ethyl Oleate (neat)): <0.01 % w/w | Reported Solubility % w/w, ruxolitinib phosphate ([6]; Ethyl Oleate (neat)): <0.01 % w/w | Calculated Solubility, % w/w in base form ([6]; Etocas 35 (neat)): 0.729 % w/w | Reported Solubility % w/w, ruxolitinib phosphate ([6]; Etocas 35 (neat)): 0.962 % w/w | Calculated Solubility, % w/w in base form ([6]; GTCC (neat)): 0.015 % w/w | Reported Solubility % w/w, ruxolitinib phosphate ([6]; GTCC (neat)): 0.02 % w/w | Calculated Solubility, % w/w in base form [6, 8]: <0.01 % w/w | Reported Solubility % w/w, ruxolitinib phosphate [6, 8]: <0.01 % w/w | Calculated Solubility, % w/w in base form ([6]; Light Mineral Oil (LMO) (neat)): <0.01 % w/w | Reported Solubility % w/w, ruxolitinib phosphate ([6]; Light Mineral Oil (LMO) (neat)): <0.01 % w/w | Calculated Solubility, % w/w in base form ([6]; Octadodecabol (ODD) (neat)): 0.022 % w/w | Reported Solubility % w/w, ruxolitinib phosphate ([6]; Octadodecabol (ODD) (neat)): 0.029 % w/w | Calculated Solubility, % w/w in base form ([6]; Oleth-3 (neat)): 0.513 % w/w | Reported Solubility % w/w, ruxolitinib phosphate ([6]; Oleth-3 (neat)): 0.677 % w/w | Calculated Solubility, % w/w in base form ([6]; Oleyl alcohol (neat)): 0.052 % w/w | Reported Solubility % w/w, ruxolitinib phosphate ([6]; Oleyl alcohol (neat), no propellant): 0.068 % w/w | Calculated Solubility, % w/w in base form ([6]; PEG 300 (neat)): 1.169 % w/w | Reported Solubility % w/w, ruxolitinib phosphate ([6]; PEG 300 (neat)): 1.543 % w/w | Calculated Solubility, % w/w in base form ([6]; PEG400 (neat)): 0.846 % w/w | Reported Solubility % w/w, ruxolitinib phosphate ([6]; PEG400 (neat)): 1.117 % w/w | Calculated Solubility, % w/w in base form ([6]; Polysorabte 80 (neat)): 0.920 % w/w | Reported Solubility % w/w, ruxolitinib phosphate ([6]; Polysorabte 80 (neat)): 1.214 % w/w | Calculated Solubility, % w/w in base form ([6]; Polysorbate 20 (neat)): 0.957 % w/w | Reported Solubility % w/w, ruxolitinib phosphate ([6]; Polysorbate 20 (neat)): 1.263 % w/w | Calculated Solubility, % w/w in base form ([6]; Propylene Glycol (PG) (neat)): 1.651 % w/w | Reported Solubility % w/w, ruxolitinib phosphate ([6]; Propylene Glycol (PG) (neat)): 2.179 % w/w | Calculated Solubility, % w/w in base form ([6]; Span 20 (neat)): 0.877 % w/w | Reported Solubility % w/w, ruxolitinib phosphate ([6]; Span 20 (neat)): 1.157 % w/w | Calculated Solubility, % w/w in base form ([6]; Transcutol-P (neat)): 0.927 % w/w | Reported Solubility % w/w, ruxolitinib phosphate ([6]; Transcutol-P (neat)): 1.223 % w/w
SMILES: N#CC[C@H](C1CCCC1)n1cc(-c2ncnc3[nH]ccc23)cn1 [Ruxolitinib phosphate]
amount dissolved in hydroethanolic base ([5]; base having 60% ethanol with and without additional propylene glycol): approximately 3 % (w/w) on a free base basis

chemical stability, in words [2]: chemically stable
SMILES: N#CC[C@H](C1CCCC1)n1cc(-c2ncnc3[nH]ccc23)cn1 [Ruxolitinib]
systemic exposure (plasma concentrations) [1]: did not indicate therapeutic relevant concentrations

Source: US20250205157A1, “TOPICAL RUXOLITINIB FOAM” (Incyte Corporation, priority 2023, published 2025)
